We go through 17 molecules from patent US8012963B2, “3,4-dihydro-2H-benzo[1,4]oxazine and thiazine derivatives as CETP inhibitors” (Janssen Pharmaceutica N.V., priority 2006, dated 2011).

The inhibition is the share of the control response that was lost under treatment. Lower therefore signals a response near the control. As a reminder, the IC50 is the point on the concentration scale where inhibition reaches its midpoint. Higher therefore signals lower potency.

The experiment has as its target T1, CETP (Homo sapiens, UniProt P11597).
T1 construct: from tissue; host or cells: human plasma from normal volunteers
T1 sequence (P11597 18-493): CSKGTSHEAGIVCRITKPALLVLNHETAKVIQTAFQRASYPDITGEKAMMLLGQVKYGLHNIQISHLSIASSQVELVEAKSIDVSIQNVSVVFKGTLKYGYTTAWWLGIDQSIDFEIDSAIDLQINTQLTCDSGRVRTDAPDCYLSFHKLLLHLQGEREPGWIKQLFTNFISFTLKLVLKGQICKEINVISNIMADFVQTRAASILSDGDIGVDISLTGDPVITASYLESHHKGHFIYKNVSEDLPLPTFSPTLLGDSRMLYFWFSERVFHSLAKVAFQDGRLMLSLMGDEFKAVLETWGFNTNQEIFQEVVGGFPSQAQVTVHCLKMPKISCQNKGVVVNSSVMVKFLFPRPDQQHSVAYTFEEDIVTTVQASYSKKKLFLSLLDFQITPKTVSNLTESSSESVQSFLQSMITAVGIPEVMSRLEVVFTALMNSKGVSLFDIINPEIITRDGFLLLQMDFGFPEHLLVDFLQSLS
Briefly: CETP in vitro assay ([3H]CE-HDL transfer, Amersham kit TRKQ7005; modified protocol in human plasma). It counts as biochemical. Conditions: multiple values = multiple measurements; for inhibition at 1 µM / % Inhibition @ 1 μM: 1 μM compound. The method, boiled down:
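Normal-volunteer human plasma was incubated ≥4 hr at 37 °C with approx. 25 μg/ml [3H]CE-HDL and compound in DMSO, with a 4 °C blank for non-specific transfer. HDL was separated by Dextralip/MgCl2 precipitation and centrifugation, then supernatant radioactivity counted. IC50 came from % control versus concentration.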

Values joined by “and” are separate entries in the source; they are usually repeats but may differ in a detail not shown here. Equal values may be shown once.

Regarding `O[C@H](CN1c2cccc(-c3cc(F)c(F)c(F)c3)c2OC[C@@H]1c1cccc(OC(F)(F)C(F)F)c1)C(F)(F)F` [Compound 77, 4H-1,4-Benzoxazine-4-ethanol, 2,3-dihydro-3-[3-(1,1,2,2-tetrafluoroethoxy)phenyl]-8-[3,4,5-trifluoro-phenyl]-α-(trifluoromethyl)-, (3S,αR)—], at 1 µM the inhibition was 80%, the “% Inhibition @ 1 μM” value is reported as 82% and it took 220 nM to reach half-maximal inhibition (IC50).

In the case of `OC(CN1c2cccc(-c3cccc(OC(F)(F)F)c3)c2OCC1c1cccc(Cl)c1)C(F)(F)F` (stereo not shown) [Compound 102, 3-[3-(3-Chloro-phenyl)-8-(3-trifluoromethoxy-phenyl)-2,3-dihydro-benzo[1,4]oxazin-4-yl]-1,1,1-trifluoro-propan-2-ol], the “% Inhibition @ 1 μM” value is reported as 0%.

In turn, `CN(C)CCN1c2cccc(-c3cccc(OC(F)(F)F)c3)c2OCC1c1cccc(OC(F)(F)C(F)F)c1` (stereo not shown) [Compound 28, Dimethyl-{2-[3-[3-(1,1,2,2-tetrafluoro-ethoxy)-phenyl]-8-(3-trifluoromethoxy-phenyl)-2,3-dihydro-benzo[1,4]oxazin-4-yl]-ethyl}-amine] showed an inhibition at 1 µM of 9%.

Take `O=C(CN1c2cccc(-c3cccc(OC(F)(F)F)c3)c2OC[C@@H]1c1cccc(OC(F)(F)C(F)F)c1)C(F)(F)F` [Compound 37, 2-Propanone, 3-[(3S)-2,3-dihydro-3-[3-(1,1,2,2-tetrafluoroethoxy)phenyl]-8-[3-(trifluoromethoxy)phenyl]-4H-1,4-benzoxazin-4-yl]-1,1,1-trifluoro-]: the inhibition at 1 µM is 5%.

`O[C@H](CN1c2cccc(-c3cccc(OC(F)(F)F)c3)c2OC[C@@H]1c1cccc(OC(F)(F)C(F)F)c1)C(F)(F)F` [Compound 4, 4H-1,4-Benzoxazine-4-ethanol, 2,3-dihydro-3-[3-(1,1,2,2-tetrafluoroethoxy)phenyl]-8-[3-(trifluoromethoxy)phenyl]-α-(trifluoromethyl)-, (3S,αR)—] displayed an inhibition at 1 µM of 26%.

With `OC(CN1c2cccc(-c3cccc(F)c3)c2OCC1c1cccc(OC(F)(F)C(F)F)c1)C(F)(F)F` (single isomer, unassigned) [Compound 67, 1,1,1-Trifluoro-3-{8-(3-fluoro-phenyl)-3-[3-(1,1,2,2-tetrafluoro-ethoxy)-phenyl]-2,3-dihydro-benzo[1,4]oxazin-4-yl}-propan-2-ol], the “% Inhibition @ 1 μM” value was 97% and 83%; inhibition was half-maximal at 780 nM (IC50).

As to `COc1ccc(C2COc3c(-c4cccc(OC(F)(F)F)c4)cccc3N2CC(O)C(F)(F)F)s1` (stereo not shown) [Compound 63, 1,1,1-Trifluoro-3-[3-(5-methoxy-thiophen-2-yl)-8-(3-trifluoromethoxy-phenyl)-2,3-dihydro-benzo[1,4]oxazin-4-yl]-propan-2-ol], the “% Inhibition @ 1 μM” value is recorded as 17%.

For `OC(CN1c2cccc(-c3cc(F)cc(F)c3)c2OCC1c1cccc(OC(F)(F)C(F)F)c1)C(F)(F)F` (single isomer, unassigned) [Compound 65, 3-{8-(3,5-Difluoro-phenyl)-3-[3-(1,1,2,2-tetrafluoro-ethoxy)-phenyl]-2,3-dihydro-benzo[1,4]oxazin-4-yl}-1,1,1-trifluoro-propan-2-ol], the “% Inhibition @ 1 μM” value was 86% and 76%; the 50% inhibitory concentration (IC50) came to 990 nM.

In turn, `FC(F)C(F)(F)Oc1cccc(C2COc3c(-c4cccc(OC(F)(F)F)c4)cccc3N2CCN2CCNCC2)c1` (stereo not shown) [Compound 30, 4-(2-piperazin-1-yl-ethyl)-3-[3-(1,1,2,2-tetrafluoro-ethoxy)-phenyl]-8-(3-trifluoromethoxy-phenyl)-3,4-dihydro-2H-benzo[1,4]oxazine] gave an inhibition at 1 µM of 0%.

For `OC(CF)CN1c2cccc(-c3cccc(OC(F)(F)F)c3)c2OCC1c1cccc(OC(F)(F)C(F)F)c1` (stereo not shown) [Compound 69, 1-Fluoro-3-[3-[3-(1,1,2,2-tetrafluoro-ethoxy)-phenyl]-8-(3-trifluoromethoxy-phenyl)-2,3-dihydro-benzo[1,4]oxazin-4-yl]-propan-2-ol], the “% Inhibition @ 1 μM” value is 50%.

For the molecule `OC(CN1c2cccc(-c3cccc(OC(F)(F)F)c3)c2OCC1c1ccccc1OC(F)(F)C(F)F)C(F)(F)F` (stereo not shown) [Compound 91, 1,1,1-Trifluoro-3-[3-[2-(1,1,2,2-tetrafluoro-ethoxy)-phenyl]-8-(3-trifluoromethoxy-phenyl)-2,3-dihydro-benzo[1,4]oxazin-4-yl]-propan-2-ol], the “% Inhibition @ 1 μM” value worked out at 6%.

Take `OC(CN1c2cccc(-c3cccc(OC(F)(F)F)c3)c2OCC1c1ccco1)C(F)(F)F` (stereo not shown) [Compound 89, 1,1,1-Trifluoro-3-[3-furan-2-yl-8-(3-trifluoromethoxy-phenyl)-2,3-dihydro-benzo[1,4]oxazin-4-yl]-propan-2-ol]: the inhibition at 1 µM is 17%.

For the molecule `CCc1ccc(C2COc3c(-c4cccc(OC(F)(F)F)c4)cccc3N2CC(O)C(F)(F)F)s1` (stereo not shown) [Compound 58, 3-[3-(5-Ethyl-thiophen-2-yl)-8-(3-trifluoromethoxy-phenyl)-2,3-dihydro-benzo[1,4]oxazin-4-yl]-1,1,1-trifluoro-propan-2-ol], the “% Inhibition @ 1 μM” value was 60% and 96%; the IC50 was 502 nM.

In the case of `FC(F)C(F)(F)Oc1cccc(C2COc3c(-c4cccc(OC(F)(F)F)c4)cccc3N2CCN2CCOCC2)c1` (stereo not shown) [Compound 29, 4-(2-Morpholin-4-yl-ethyl)-3-[3-(1,1,2,2-tetrafluoro-ethoxy)-phenyl]-8-(3-trifluoromethoxy-phenyl)-3,4-dihydro-2H-benzo[1,4]oxazine], 1 µM produced 0% inhibition.

As for `CCc1ccsc1C1COc2c(-c3cccc(OC(F)(F)F)c3)cccc2N1CC(O)C(F)(F)F` (stereo not shown) [Compound 88, 3-[3-(3-Ethyl-thiophen-2-yl)-8-(3-trifluoromethoxy-phenyl)-2,3-dihydro-benzo[1,4]oxazin-4-yl]-1,1,1-trifluoro-propan-2-ol], the “% Inhibition @ 1 μM” value is reported as 12%.

In turn, `CCN1c2cccc(-c3cccc(OC(F)(F)F)c3)c2OCC1c1cccc(OC(F)(F)C(F)F)c1` (stereo not shown) [Compound 33, 4-Ethyl-3-[3-(1,1,2,2-tetrafluoro-ethoxy)-phenyl]-8-(3-trifluoromethoxy-phenyl)-3,4-dihydro-2H-benzo[1,4]oxazine] came in with an inhibition at 1 µM of 24%.

Consider `C[C@H](O)CN1c2cccc(-c3cccc(OC(F)(F)F)c3)c2OC[C@@H]1c1cccc(OC(F)(F)C(F)F)c1` [Compound 36, 4H-1,4-Benzoxazine-4-ethanol, 2,3-dihydro-α-methyl-3-[3-(1,1,2,2-tetrafluoroethoxy)phenyl]-8-[3-(trifluoromethoxy)phenyl]-, (3S,αS)—], for which at 1 µM the inhibition was 28%.
